Assays:
[1] = tested on: Hepa1-6/luc liver and lung metastasis; assay: Liver and lung metastasis model; type: in vivo, mouse; conditions: Hepa1-6/luc cells via spleen or tail vein, 300 µM in 200 µL i.v. every two days, 16 days, n = 5
Source text: Submitted to Advanced Science
effector T cells (CD45+CD3+CD8+)/(CD45+CD3+CD4+), tumor cells were stained with anti-CD45-FITC
(Biolegend), anti-CD3ε-PerCP-Cy5.5 (Biolegend), anti-CD4-APC (Biolegend), and anti-CD8a-PE (Biolegend)
antibodies according to the standard protocol. For evaluation of NK cells (CD45+CD3-NK1.1+), tumor cells
were stained with anti-CD45-FITC (Biolegend), anti-CD3-PE (Biolegend) and anti-CD49b-APC (Biolegend)
antibodies and examined using flow cytometry. For MDSCs (CD45+CD11b+Gr-1+) analysis, tumor cells were
stained with anti-CD45-FITC, anti-CD11b-BrilliantViolet-510 (Biolegend), anti -F4/80-PE (Biolegend), and
anti-Gr-1-APC (Biolegend) antibodies for flow cytometry examination (BD FACS Canto SORP, USA). The
software FlowJo V10.6.2 was used for data analysis. To further explore the immunomodulatory effects of FTP-
NPs. Tumor tissues were harvested for immune profiling. Plasma cytokine levels, including IL-6, IL-10, and
TNF-α, were measured using commercially available ELISA kits to assess the immune activation induced by
Experimental liver and lung metastasis model
Six-week-old male C57BL/6J mice (20–25 g) were used to establish liver and lung metastasis models. Hepa1-
6/luc cells (1 × 10^6 cells) were injected into the spleen or tail vein of the mice to induce liver or lung
metastasis, respectively. For the liver metastasis model, Hepa1-6/luc cells were injected into the spleen, allowing
tumor cells to circulate and establish metastases in the liver. For the lung metastasis model, Hepa1-6/luc cells
were injected via the tail vein, leading to the formation of metastases in the lungs. Following cell implantation, […]
euthanized, and metastases were assessed macroscopically. […]
injecting D-Luciferin (150 mg/kg) intraperitoneally, and tumor burden was quantified using the IVIS Spectrum […]
conducted, and metastatic lesions were assessed under an inverted microscope (Axiovert 200, Zeiss, Germany). […]
300 μM per injection) for mice. […] (b) Fluorescence quantized chart […]
experiments. Statistical significance was calculated by one-way ANOVA, *p < 0.050.(c, d) Photographs of lung […]

activated neutrophils = assay: Retention on neutrophil membrane, flow cytometry of PpIX; type: cell-based, mouse; conditions: 50 µM, NPs washed off after 4 h, fresh medium for another 8 h
resting neutrophils = assay: CCK-8 cytotoxicity; type: cell-based, mouse; conditions: CCK-8, 24 h, different dosages
Description: The supernatant was discarded, and the red blood cells were lysed with RBC lysate. The neutrophils were then washed with PBS again, and the supernatant was discarded. The cells were resuspended in culture medium and used for further experiments. […]
10 minutes to remove unbound particles, and the supernatant was collected. […]
In vitro cytotoxicity assay
The CCK-8 assay was used to assess the cell viability of Hepa1-6/luc, resting neutrophils, and activated neutrophils. Following the seeding of 1*10^4 cells per well on a 96-well plate, the cells were subjected to different dosages of FTP-NPs and NFTP-NPs (medium: DMSO = 99:1 v/v). After 24 hours, the cells were incubated for two hours with 10 µL of CCK-8 solution. Finally, a microplate reader (Tecan Infinite M200, Switzerland) was used to measure cell viability based on the absorbance values.
Targeting the capability of NEBP
To evaluate the targeting capability of NE-binding peptide (NEBP), the harvested resting neutrophils and […]

[2] = tested on: mouse red blood cells (RBCs); assay: Hemolysis assay; type: cell-based; conditions: 2% RBC suspension in PBS, 1 h, 37 °C, absorbance at 541 nm, triplicate
Description: Hemolysis Assay of FTP-NPs
To assess the hemolytic activity of FTP-NPs, red blood cells (RBCs) were harvested from C57BL/6 mice (aged 6–8 weeks, female). The mice were euthanized by cervical dislocation, and blood was collected via cardiac puncture into heparinized tubes. Blood was then immediately diluted with an equal volume of phosphate-buffered saline (PBS) and centrifuged at 1500 g for 10 minutes to isolate the RBCs. The supernatant was discarded, and the RBC pellet was washed three times with PBS to remove any residual plasma and other cellular components. The final RBC suspension was adjusted to a 2% hematocrit using PBS. FTP-NPs were synthesized as described previously. Briefly, FTP-NPs were prepared by self-assembly of peptidic […]
concentration was tested in triplicate. For the hemolysis assay, 200 μL of the 2% RBC suspension was incubated with 200 μL of FTP-NPs at the specified concentrations in a 96-well plate for 1 hour at 37°C under gentle shaking. […] The hemoglobin released into the supernatant was quantified by measuring the absorbance at 541 nm (A541) using a microplate reader. The percentage of hemolysis was calculated using the following formula: Hemolysis %= (Asample−ANC)/ (APC−ANC) *100%. Where Asample is the absorbance of the sample, ANC is the absorbance of the negative control, and APC is the absorbance of the positive control. […]

| Substance | liver and lung metastasis (bioluminescent signals, number of metastatic foci) [1] | PpIX fluorescence on activated neutrophils from 4 h to 12 h (retention) (activated neutrophils) | survival rate (resting neutrophils) | maximum observed hemolysis rate [2] |
| --- | --- | --- | --- | --- |
| PpIX-GGGAAK-EAIPMSIPPEVK [NFTP-NPs, nanoparticles of the non-fibrillar transformable control peptide NFTP] | obvious metastases | dropped sharply |  |  |
| PpIX-GFFVLK-EAIPMSIPPEVK [FTP-NPs] | weakened considerably and significantly lower | persistently strong PpIX fluorescence signals | over 95% | approximately 0.9% |
